Test results as given in ChEMBL document CHEMBL5579836, “Extensive targeting of chemical space at the prime side of ketoamide inhibitors of rhomboid proteases by branched substituents empowers their selectivity and potency” (Eur J Med Chem, 2024).
pEC50, pIC50, pKi: −log10 of the molar value. Starred links: 1 amine or outer side, 2 acyl side, 3 side chain; linkers in the order of their positions; H or OH if unused. Non-standard residues stand in square brackets, D forms with d. Residues, ends and D or L forms follow the SMILES beside them. *: point of attachment. Pheol(OBn) = c1ccc(COC[C@H](Cc2ccccc2)N*)cc1; NH(4-phenylbutyl) = c1ccc(CCCCN*)cc1; X1 = C[C@H](N[*:1])C(=O)C(=O)[*:2]

What was measured:
[1] = Inhibition of Strep-tagged recombinant human RHBDL2 extracted from Expi293 cells using KSp118 as substrate incubated for 1 hr by fluorescence based assay; type: cell-free
Rhomboid protease GlpG [2] = biological target: T1, Rhomboid protease GlpG (Escherichia coli (strain K12), UniProt P09391); assay: Inhibition of Escherichia coli GlpG extracted from Escherichia coli C43(DE3) using KSp96 as substrate incubated for 1 hr by fluorescence based assay; conditions: for pKi: read-out: Ki(app)
T1 sequence (P09391 whole entry): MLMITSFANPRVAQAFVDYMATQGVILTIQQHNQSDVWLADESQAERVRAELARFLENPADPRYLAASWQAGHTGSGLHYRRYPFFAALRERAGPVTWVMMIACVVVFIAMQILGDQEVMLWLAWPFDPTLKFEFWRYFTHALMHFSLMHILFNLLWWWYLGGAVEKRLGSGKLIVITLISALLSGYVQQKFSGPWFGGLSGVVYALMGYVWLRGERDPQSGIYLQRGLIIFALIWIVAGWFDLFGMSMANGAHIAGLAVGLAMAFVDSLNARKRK

Rhomboid protease GlpG [3] = biological target: T1, Rhomboid protease GlpG; assay: Inhibition of GlpG in wild-type Escherichia coli MC4100 using MBP-Flag-LacYTMD2-Trx as substrate
[4] = biological target: T2, Presenilin-associated rhomboid-like protein, mitochondrial (Homo sapiens, UniProt Q9H300); assay: Inhibition of tetracycline-inducible FLAG-tagged human PARL stably transfected in HEK293T harboring FITR/PARL KO; type: cell-based
T2 sequence (Q9H300 whole entry): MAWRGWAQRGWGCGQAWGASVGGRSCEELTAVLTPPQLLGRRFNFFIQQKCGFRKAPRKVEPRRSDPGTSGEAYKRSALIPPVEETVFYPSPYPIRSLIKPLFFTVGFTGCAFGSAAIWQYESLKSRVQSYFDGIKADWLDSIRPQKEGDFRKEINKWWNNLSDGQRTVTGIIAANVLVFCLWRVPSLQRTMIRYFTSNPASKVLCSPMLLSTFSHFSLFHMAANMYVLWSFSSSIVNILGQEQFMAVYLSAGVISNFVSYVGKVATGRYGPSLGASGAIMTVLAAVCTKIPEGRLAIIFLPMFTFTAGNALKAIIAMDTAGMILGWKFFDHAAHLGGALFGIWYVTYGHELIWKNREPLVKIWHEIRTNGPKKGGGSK

[5] = Selectivity index, ratio of IC50 for rhomboid (unknown origin) to IC50 for recombinant human PARL using KSp106 as substrate
[6] = Selectivity index, ratio of IC50 for rhomboid (unknown origin) to IC50 for Strep-tagged recombinant human RHBDL2 extracted from Expi293 cells using KSp118 as substrate
[7] = Selectivity index, ratio of IC50 for rhomboid (unknown origin) to IC50 for Escherichia coli GlpG extracted from Escherichia coli C43(DE3) using KSp96 as substrate

Row | SMILES | pIC50 [1] | pIC50 (Rhomboid protease GlpG [2]) | pEC50 (Rhomboid protease GlpG [3]) | other results
1 | CC(C)CC(=O)N[C@H](C(=O)N[C@@H](C)C(=O)N[C@@H](CCCCN)C(=O)N[C@@H](C)C(=O)C(=O)NCCCCc1ccccc1)C(C)C | 6.63 |  |  | 
2 | CC(=O)N1CCC[C@H]1C(=O)N[C@H](C(=O)N[C@@H](C)C(=O)N[C@@H](CCCCN)C(=O)N[C@@H](C)C(=O)C(=O)NCCCCc1ccccc1)C(C)C (Ac-PVAK[X1]-{NH(4-phenylbutyl)}) | 6.15 | 6.48 |  | 
3 | CC(=O)N[C@H](C(=O)N[C@@H](CCCNC(=N)N)C(=O)N[C@@H](Cc1c[nH]cn1)C(=O)N[C@@H](C)C(=O)C(=O)NCCc1ccccc1)C(C)C |  | 7.25 | 5.79 | 
4 | CC(=O)N[C@H](C(=O)N[C@@H](CCCNC(=N)N)C(=O)N[C@@H](Cc1c[nH]cn1)C(=O)N[C@@H](C)C(=O)C(=O)NC(CCCc1ccccc1)Cc1ccccc1)C(C)C (mixture of isomers) |  | 8.64 | 6.91 | pKi (Rhomboid protease GlpG [2]): 8.89
5 | C[C@H](NC(=O)[C@H](Cc1c[nH]cn1)NC(=O)[C@H](CCCNC(=N)N)NC(=O)CCc1ccccc1)C(=O)C(=O)N[C@H](COCc1ccccc1)Cc1ccccc1 |  | 8.70 | 6.37 | 
6 | CC(=O)N[C@@H](C)C(=O)N[C@H](C(=O)N[C@@H](Cc1ccccc1)C(=O)N[C@@H](CC(C)C)C(=O)N[C@@H](C)C(=O)C(=O)N[C@H](COCc1ccccc1)Cc1ccccc1)C(C)C (Ac-AVFL[X1]-{Pheol(OBn)}) | 4.26 | 7.83 |  | 
7 | CC(=O)N[C@H](C(=O)N[C@@H](CCCNC(=N)N)C(=O)N[C@@H](Cc1c[nH]cn1)C(=O)N[C@@H](C)C(=O)C(=O)NCCCCc1ccccc1)C(C)C | 5.21 | 7.35 | 5.83 | 
8 | CC(C)CC(=O)N[C@@H](CCCNC(=N)N)C(=O)N[C@@H](Cc1c[nH]cn1)C(=O)N[C@@H](C)C(=O)C(=O)N[C@H](COCc1ccccc1)Cc1ccccc1 |  | 8.64 | 6.47 | 
9 | CC(=O)N1CCC[C@H]1C(=O)N[C@H](C(=O)N[C@@H](C)C(=O)N[C@@H](CCCCN)C(=O)N[C@@H](C)C(=O)C(=O)N[C@H](COCc1ccccc1)Cc1ccccc1)C(C)C (Ac-PVAK[X1]-{Pheol(OBn)}) | 6.11 | 8.25 |  | 
10 | CC(=O)N[C@@H](C)C(=O)N[C@H](C(=O)N[C@@H](Cc1ccccc1)C(=O)N[C@@H](CC(C)C)C(=O)N[C@@H](C)C(=O)C(=O)NCCCCc1ccccc1)C(C)C (Ac-AVFL[X1]-{NH(4-phenylbutyl)}) | 4.48 | 6.52 |  | pEC50 [4]: 6.35; Ratio IC50 [5]: 1; Ratio IC50 [6]: 1150; Ratio IC50 [7]: 10.6
11 | CC(=O)N[C@H](C(=O)N[C@@H](CCCNC(=N)N)C(=O)N[C@@H](Cc1c[nH]cn1)C(=O)N[C@@H](C)C(=O)C(=O)N[C@H](COCc1ccccc1)Cc1ccccc1)C(C)C | 5.27 | 8.60 | 6.76 | pKi (Rhomboid protease GlpG [2]): 8.85
12 | CCCCc1ccc(OCC[C@H](Cc2ccccc2)NC(=O)C(=O)[C@H](C)NC(=O)[C@H](Cc2c[nH]cn2)NC(=O)[C@H](CCCNC(=N)N)NC(=O)[C@@H](NC(C)=O)C(C)C)cc1 |  | 8.72 | 6.88 | pKi (Rhomboid protease GlpG [2]): 9.15
